Our source for the IC50 values is EP0490919B1, “CYTOPROTECTIVE COMPOUNDS BEARING UNSATURATED HYDROCARBON GROUPS HAVING 16 TO 20 CARBON ATOMS” (VIRGINIA COMMONWEALTH UNIVERSITY, priority 1989, dated 1991).

For one assay, the system named is PLA2. Briefly: Anti-PLA2 activity (Table 6). Type of assay: biochemical. As to conditions: read-out: IC-50 Anti-PLA2 Activity.
Assay [1] can be described thus: Anti-oxidant activity (Table 6). As to conditions: read-out: IC-50 Anti-Oxidant Activity; nd = not detectable at ≤ 500 uM.

The structures appear in SMILES notation. Where a name gives a salt, the structure may show the parent alone.

Regarding `CCCCC/C=C\C/C=C\CCCCCCCC(=O)OC(C(=O)O)C(OC(=O)CCCCCCC/C=C\C/C=C\CCCCC)C(=O)O` (centres unmarked) [PX-9], the IC50 in the assay with PLA2 is 7.5 µM; in assay [1] it was 100 µM.

`CCCCCCCC/C=C\CCCCCCCC(=O)OC(C(=O)O)C(OC(=O)CCCCCCC/C=C\CCCCCCCC)C(=O)O` (centres unmarked) [PX-10]: the IC50 with PLA2 is 7 µM; in assay [1], 60 µM. For `CCCCCCCC/C=C\CCCCCCCC(=O)OCC1(COC(=O)CCCCCCC/C=C\CCCCCCCC)COC(=O)CN1C(=O)CCCCCCC/C=C\CCCCCCCC` [PX-11, Tricinyl Trioleate], in that order: 2.6 µM and 145 µM. With `CCCCCCCC/C=C\CCCCCCCC(=O)OCC(N)(COC(=O)CCCCCCC/C=C\CCCCCCCC)COC(=O)CCCCCCC/C=C\CCCCCCCC` [PX-12, P-Toluene Sulfonate Salt of Tris Trioleate], the figures for the IC50 (in the assay on PLA2; in assay [1]) were 1.5 µM and 50 µM, respectively. As for `CCCCCCCC/C=C\CCCCCCCC(=O)OCC(COC(=O)CCCCCCC/C=C\CCCCCCCC)(COC(=O)CCCCCCC/C=C\CCCCCCCC)NCCS(=O)(=O)O` [PX-13, TES Trioleate], the IC50 with PLA2 is 2.2 µM; in assay [1] it was 60 µM. `CCCCC/C=C\C/C=C\CCCCCCCC(=O)OCC1(COC(=O)CCCCCCC/C=C\C/C=C\CCCCC)COC(=O)CN1C(=O)CCCCCCC/C=C\C/C=C\CCCCC` [PX-15]: in the assay on PLA2, the IC50 was determined as 19.2 µM.
